Data as given in US12414952B2 (Merck Sharp & Dohme LLC, priority 2018, dated 2025).

Tests used:
[1] = target: T1, human A2a adenosine receptor (Homo sapiens (Human), UniProt P29274); test: A2a binding affinity using an alternative radioligand binding assay, Method (C); details: Method (C): [3H]CGS21680, CHO.A2a membranes
Source text: (§1) The A2a receptor affinity binding assay measured the amount of binding of a tritiated ligand with high affinity for the A2a adenosine receptor to membranes made from HEK293 or CHO cells recombinantly expressing the human A2a adenosine receptor, in the presence of varying concentrations of a compound of the invention. The data were generated using either filtration binding or a homogenous scintillation proximity assay (SPA).
Method (C): Measurement of A2a Binding Affinity Using an Alternative Radioligand Binding Assay
Membranes used in this procedure were made by washing cell cultures twice with DPBS buffer (Dulbecco's phosphate buffered saline without calcium and magnesium, ThermoFisher Scientific, Cat. No. A1285601), and harvesting the cell cultures by mechanical scraping. The cells were collected by centrifugation and re-suspended in 10 mM HEPES, pH 7.4 containing 0.1 mM benzamidine (Sigma, Cat. No. B6506) and 0.1 mM PMSF (phenylmethylsulfonyl fluoride, Sigma, Cat. No. 10837091001). Cells were freeze-thawed twice in a dry ice/ethanol bath and homogenized with 25 to 30 strokes in a glass dounce homogenizer (Wheaton, Cat. No. 357546). Membranes were pelleted at 40,000×g for 20 min at 4° C. and re-suspended in assay buffer (5 mM HEPES, pH 7.4, 5 mM MgCl2; supplemented with 0.1 mM benzamidine) at a protein concentration of 2.6 mg/mL. Protein concentration was determined by the Bio-Rad method (Bio-Rad, Cat. No. 5000002). Membranes were then incubated with adenosine deaminase (final concentration 2U/mL) for 20 min at 37° C. before use in the binding assay.
To perform the binding assay, 50 μg CHO.A2a membranes, 5 nM [^3H]CGS21680 (Perkin Elmer, Cat. No. NET1021), and 1 μL of test compound were combined in individual tubes to a volume of 100 μL. To define total and non-specific binding, wells containing 1% DMSO and 20 μM N-ethylcarboxamidoadenosine (Tocris Bioscience, Cat. No. 1691) respectively, were also included. The samples were incubated for 2 h at 37° C. The samples were filtered rapidly through a glass fiber filter using a cell harvester and washed with cold buffer (10 mM Tris, pH7.4, 5 mM MgCl2). The filter was allowed to dry and individual filters were placed into vials together with liquid scintillant and subjected to scintillation counting. After normalization to total and non-specific binding, the percent effect at each compound concentration was calculated. The plot of percent effect versus the log of compound concentration was analyzed electronically using a 4-parameter logistic fit based on the Levenberg-Marquardt algorithm to generate IC50 values.

[2] = target: T1, human A2a adenosine receptor; test: A2a binding affinity using SPA, Method (B); details: Method (B): [3H]SCH58261 SPA
Source text: as §1
Method (B): Measurement of A2a Binding Affinity Using SPA
Binding affinity using SPA was conducted as follows. Test compounds (50 nL) were dispensed into individual wells of a 384-well OptiPlate™ well (Perkin Elmer) by Echo® acoustic liquid transfer (Labcyte). 20 μL of 1.25 nM [^3H] SCH58261 ((7-(2-phenylethyl)-5-amino-2-(2-furyl)-pyrazolo-[4,3-e]-1,2,4-triazolo[1,5-c]pyrimidine)) in DPBS assay buffer (Dulbecco's phosphate buffered saline without calcium and magnesium, ThermoFisher Scientific, Cat. No. A1285601) supplemented with 10 mM MgCl2 was added. A2a receptor-expressing membranes were incubated with 20 μg/mL adenosine deaminase (Roche, Cat. No. 10 102 105 001) for 15 min at room temperature. The receptor-expressing membranes were then combined with wheat germ agglutinin-coated yttrium silicate SPA beads (GE Healthcare, Cat. No. RPNQ0023) in a ratio of 1:1000 (w/w) and incubated for 30 min at room temperature. 30 μL of the membrane/bead mixture (0.25 μg and 25 μg per well respectively) were added to the 384-well OptiPlate™ well. To define total and non-specific binding, wells containing 1% DMSO or 1 μM CGS15943 (Tocris Bioscience, Cat. No. 1699) respectively were also included in the experiment. The plate was incubated for one h at room temperature with agitation. The assay plate was then incubated for an h to allow the beads to settle before data were collected using a TopCount® (Perkin Elmer) scintillation counter. After normalization to total and non-specific binding, the percent effect at each compound concentration was calculated. The plot of percent effect versus the log of compound concentration was analyzed electronically using a 4-parameter logistic fit based on the Levenberg-Marquardt algorithm to generate IC50 values.

[3] = target: human A2b adenosine receptor (Homo sapiens (Human), UniProt P29275); test: A2b binding affinity, radioligand filtration binding assay; details: tritiated proprietary A2b antagonist, HEK293 membranes
Sequence of human A2b adenosine receptor (P29275 whole entry): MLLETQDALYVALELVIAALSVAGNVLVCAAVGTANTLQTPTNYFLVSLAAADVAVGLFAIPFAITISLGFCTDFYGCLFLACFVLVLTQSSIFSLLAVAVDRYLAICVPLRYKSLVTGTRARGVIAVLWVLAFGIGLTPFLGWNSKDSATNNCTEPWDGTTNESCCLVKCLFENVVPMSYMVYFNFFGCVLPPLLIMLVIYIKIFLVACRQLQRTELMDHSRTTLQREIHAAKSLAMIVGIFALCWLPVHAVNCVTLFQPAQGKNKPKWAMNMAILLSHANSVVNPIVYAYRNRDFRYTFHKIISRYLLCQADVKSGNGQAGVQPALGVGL
Summary of the method: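 Membranes from HEK293 cells recombinantly expressing human A2b were incubated with a tritiated proprietary A2b antagonist, with and without compound. Filter-bound radioactivity was counted by scintillation. Percent effect was normalized to total and non-specific binding, and IC50 came from a 4-parameter logistic fit.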

[4] = target: T1, human A2a adenosine receptor; test: A2a binding affinity using radioligand binding, Method (A); details: Method (A): [3H]SCH58261 filtration binding
Summary of the method: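 Membranes from HEK293 or CHO cells expressing human A2a were preincubated with compound for 15–30 min at room temperature. [3H]SCH58261 was then added (4 nM working dilution) in 50 mM Tris pH 7.4, 10 mM MgCl2, 0.005% Tween20 for 60 min at room temperature. Bound radioactivity after filtration was normalised to total and non-specific binding, and IC50 came from 4-parameter logistic fits.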

[5] = target: T1, human A2a adenosine receptor; test: A2a receptor affinity binding assay, method not indicated; details: method letter not given
Source text: Method (A) describes the procedure used to measure A2a binding affinity using radioligand binding. Method (B) describes the procedure used to measure A2a binding affinity using SPA technology. Method (C) describes an alternative procedure used to measure A2a binding affinity using radioligand binding. The method used to measure A2b binding affinity is also described below. The method used to determine the A2a IC50 value reported for each compound in the table is indicated next to the reported value. The A2b IC50 value measured using the A2b binding affinity assay is shown in the table next to the compound under the corresponding A2a value.
as §1

T1 sequence (P29274 whole entry): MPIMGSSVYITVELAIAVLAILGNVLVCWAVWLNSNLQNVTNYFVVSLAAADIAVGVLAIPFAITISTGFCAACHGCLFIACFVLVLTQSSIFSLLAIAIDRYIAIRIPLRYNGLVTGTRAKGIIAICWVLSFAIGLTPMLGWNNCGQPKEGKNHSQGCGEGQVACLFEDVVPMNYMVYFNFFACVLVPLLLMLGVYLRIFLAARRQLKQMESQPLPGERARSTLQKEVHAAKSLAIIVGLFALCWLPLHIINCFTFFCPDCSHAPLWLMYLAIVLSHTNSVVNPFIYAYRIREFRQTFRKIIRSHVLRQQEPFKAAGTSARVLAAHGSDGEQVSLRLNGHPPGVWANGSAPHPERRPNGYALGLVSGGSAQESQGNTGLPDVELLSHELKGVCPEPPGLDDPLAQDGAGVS

SMILES | IC50 [3] | IC50 [4] | further results
COc1ccccc1-c1cc2nc(CCN3CC(F)(F)C3)nn2c(N)n1 [Example 2.18] |  |  | IC50 [1]: 0.668 µM
Cc1cccnc1Cc1nc2c(C)c(-c3ncco3)nc(N)n2n1 [Example 9.8, 8-methyl-2-((3-methylpyridin-2-yl)methyl)-7-(oxazol-2-yl)-[1,2,4]triazolo[1,5-c]pyrimidin-5-amine] |  |  | IC50 [2]: 0.0006 µM
Cc1cccc(Cc2nc3c(C)c(-c4ncco4)nc(N)n3n2)n1 [Example 9.7, 8-methyl-2-((6-methylpyridin-2-yl)methyl)-7-(oxazol-2-yl)-[1,2,4]triazolo[1,5-c]pyrimidin-5-amine] |  |  | IC50 [2]: 0.0005 µM
Nc1nc(-c2ccc(F)cc2)cc2nc(CCN3CC(F)(F)C3)nn12 [Example 2.22] |  |  | IC50 [1]: 0.275 µM
Cc1c(-c2ncco2)nc(N)n2nc(Cc3cc[nH]n3)nc12 [Example 7.5, 2-((1H-pyrazol-3-yl)methyl)-8-methyl-7-(oxazol-2-yl)-[1,2,4]triazolo[1,5-c]pyrimidin-5-amine] |  |  | IC50 [2]: 0.0047 µM
COc1cccc(-c2cc3nc(CCN4CC(F)(F)C4)nn3c(N)n2)c1 [Example 2.19] |  |  | IC50 [1]: 0.389 µM
Cc1nc2c(s1)CN(CCc1nc3c(C)c(-c4cnco4)nc(N)n3n1)CC2 [Example 2.26] |  |  | IC50 [2]: 0.0066 µM
Cc1c(-c2ncco2)nc(N)n2nc(Cc3ccccn3)nc12 [Example 9.6, 8-methyl-7-(oxazol-2-yl)-2-(pyridin-2-ylmethyl)-[1,2,4]triazolo[1,5-c]pyrimidin-5-amine] |  |  | IC50 [2]: 0.0007 µM
Nc1nc(-c2ccccc2F)cc2nc(CCN3CC(F)(F)C3)nn12 [Example 2.20] |  |  | IC50 [1]: 0.241 µM
CCOC(=O)c1cnn(CCc2nc3c(C)c(-c4ncco4)nc(N)n3n2)c1 [Example 17.17, ethyl 1-(2-(5-amino-8-methyl-7-(oxazol-2-yl)-[1,2,4]triazolo[1,5-c]pyrimidin-2-yl)ethyl)-1H-pyrazole-4-carboxylate] | 9.67 µM | 0.0349 µM | 
Cc1c(-c2ncco2)nc(N)c2nc(Cc3cccc4c3ncn4CC(F)F)nn12 [Example 4.10] | 0.0065 µM | 0.0007 µM | 
Cc1c(-c2ncco2)nc(N)n2nc(Cc3ccc([C@H]4C[C@](C)(O)C4)cc3)nc12 [Example 5.3, (1r,3r)-3-(4-((5-amino-8-methyl-7-(oxazol-2-yl)-[1,2,4]triazolo[1,5-c]pyrimidin-2-yl)methyl)phenyl)-1-methylcyclobutanol] | 0.0035 µM | 0.0121 µM | 
Cc1c(-c2ncco2)nc(N)n2nc(CNCc3cnn(CC(C)(C)O)c3)nc12 [Example 11.5, 1-(4-((((5-amino-8-methyl-7-(oxazol-2-yl)-[1,2,4]triazolo[1,5-c]pyrimidin-2-yl)methyl)amino)methyl)-1H-pyrazol-1-yl)-2-methylpropan-2-ol] | 1.32 µM | 0.0152 µM | 
Cc1c(-c2ncco2)nc(N)n2nc(CCN3CCc4c(nnn4C4CCCC4)C3)nc12 [Example 17.13, 2-(2-(1-cyclopentyl-1,4,6,7-tetrahydro-5H-[1,2,3]triazolo[4,5-c]pyridin-5-yl)ethyl)-8-methyl-7-(oxazol-2-yl)-[1,2,4]triazolo[1,5-c]pyrimidin-5-amine] | 0.0081 µM | 0.0007 µM | 
Nc1nc(-c2cccc(F)c2)cc2nc(CCN3CC(F)(F)C3)nn12 [Example 2.21] |  |  | IC50 [1]: 0.0917 µM
Cc1c(-c2ncco2)nc(N)c2nc(Cc3ccc(C(C)(C)O)cn3)nn12 [Example 4.11] | 0.0665 µM | 0.0482 µM | 
Cc1c(-c2cc(F)cc(F)c2F)nc(N)c2nc(Cc3ccccc3)nn12 [Example 3.26] | 0.0027 µM | 0.0025 µM | 
Cc1c(-c2ncco2)nc(N)n2nc(CCN3CCn4c(cnc4C4CCCC4)C3)nc12 [Example 17.3, 2-(2-(3-cyclopentyl-5,6-dihydroimidazo[1,5-a]pyrazin-7(8H)-yl)ethyl)-8-methyl-7-(oxazol-2-yl)-[1,2,4]triazolo[1,5-c]pyrimidin-5-amine] | 0.0177 µM | 0.0042 µM | 
Cc1c(-c2ncco2)nc(N)n2nc(CCN3CCc4nn(C5CCCC5)cc4C3)nc12 [Example 17.11, 2-(2-(2-cyclopentyl-2,4,6,7-tetrahydro-5H-pyrazolo[4,3-c]pyridin-5-yl)ethyl)-8-methyl-7-(oxazol-2-yl)-[1,2,4]triazolo[1,5-c]pyrimidin-5-amine] | 0.301 µM | 0.0013 µM | 
Cc1c(-c2ncco2)nc(N)n2nc(CCN3CCCC(F)(F)C3)nc12 [Example 17.16, 2-(2-(3,3-difluoropiperidin-1-yl)ethyl)-8-methyl-7-(oxazol-2-yl)-[1,2,4]triazolo[1,5-c]pyrimidin-5-amine] | 1.1 µM | 0.0012 µM | 
Cc1c(-c2ncco2)nc(N)n2nc(Cc3ccc4c(c3)ncn4CC(F)F)nc12 [Example 4.7] | 0.0076 µM | 0.0353 µM | 
Cc1c(-c2ccc(F)cc2)nc(N)c2nc(CCN3CCn4c(cnc4C(C)C)C3)nn12 [Example 18.6, 6-(4-fluorophenyl)-2-(2-(3-isopropyl-5,6-dihydroimidazo[1,5-a]pyrazin-7(8H)-yl)ethyl)-5-methyl-[1,2,4] triazolo[1,5-a]pyrazin-8-amine] |  |  | IC50 [5]: 0.346 µM
Nc1nc(-c2ccccc2)cc2nc(CCN3CC(F)(F)C3)nn12 [Example 2.23] |  |  | IC50 [1]: 0.15 µM
CC(C)c1ncc2n1CCN(CCc1nc3cc(-c4ncco4)nc(N)n3n1)C2 [Example 1.19] | 0.905 µM | 0.127 µM | 
Cc1nc2c(s1)CN(CCc1nc3c(C)c(-c4ncco4)nc(N)n3n1)CC2 [Example 1.8] |  |  | IC50 [2]: 0.0024 µM
